From the NIST ThermoML archive (doi:10.1021/je060271a)

Settings: 283.15 K, Liquid, Vibrating tube method

CCCCC(=O)OCC(COC(=O)CCCC)(COC(=O)CCCC)COC(=O)CCCC [pentaerythritol tetrapentanoate]
Settings | mass density [kg/m3]
2596 kPa | 1028.7
2607.6 kPa | 1028.6
2619.2 kPa | 1028.8
2631.2 kPa | 1028.6
2645.8 kPa | 1028.6
2657.4 kPa | 1028.6
2670 kPa | 1028.7
2684.8 kPa | 1028.6
2697.1 kPa | 1028.5
2708.7 kPa | 1028.6
2721.4 kPa | 1028.6
2736.6 kPa | 1028.8
2749.1 kPa | 1028.6
2762 kPa | 1028.6
2777.4 kPa | 1028.7
2790.4 kPa | 1028.7
2803.7 kPa | 1028.6
2819.5 kPa | 1028.6
2833.1 kPa | 1028.7
2846.4 kPa | 1028.7
2860.3 kPa | 1028.7
2874 kPa | 1028.8
2891 kPa | 1028.7
2904.7 kPa | 1028.6
2918.7 kPa | 1028.8
2935.2 kPa | 1028.8
2949.4 kPa | 1028.8
2963.8 kPa | 1028.8
2978.5 kPa | 1028.7
2995.7 kPa | 1028.9
3010.3 kPa | 1028.8
3025.5 kPa | 1028.8
3042.9 kPa | 1028.9
3057.8 kPa | 1029
3073.4 kPa | 1028.9
3091.7 kPa | 1028.8
3107 kPa | 1028.9
3122.3 kPa | 1028.9
3138 kPa | 1029
3156.6 kPa | 1029
3172.7 kPa | 1028.9
3191.8 kPa | 1028.9
3207.9 kPa | 1029
3224.7 kPa | 1028.9
3241.2 kPa | 1029
3261.6 kPa | 1029
3276.9 kPa | 1028.9
3297 kPa | 1028.9
3314 kPa | 1029
3334.8 kPa | 1029.1
3352.3 kPa | 1029
3369.8 kPa | 1029
3387.8 kPa | 1029
3405.8 kPa | 1029.1
3427.2 kPa | 1029.1
3444.8 kPa | 1029.1
3463.4 kPa | 1029.2
3485.6 kPa | 1029
3505 kPa | 1029.1
3523.9 kPa | 1029.1
3543.1 kPa | 1029.2
3562.2 kPa | 1029.1
3585.6 kPa | 1029.1
3605.1 kPa | 1029.2
3625.3 kPa | 1029.2
3645 kPa | 1029.4
3665.5 kPa | 1029.2
3689.4 kPa | 1029.2
3709.5 kPa | 1029.3
3729.7 kPa | 1029.2
3754.5 kPa | 1029.2
3775.8 kPa | 1029.2
3797 kPa | 1029.3
3821.9 kPa | 1029.4
3843.6 kPa | 1029.4
3865.6 kPa | 1029.3
3887.1 kPa | 1029.4
3913.4 kPa | 1029.2
3935.4 kPa | 1029.2
3957.4 kPa | 1029.4
3984.4 kPa | 1029.5
4007.1 kPa | 1029.3
4030 kPa | 1029.5
4053.3 kPa | 1029.5
4081.1 kPa | 1029.5
4104.4 kPa | 1029.6
4128.5 kPa | 1029.5
4157.3 kPa | 1029.6
4181.3 kPa | 1029.5
4205.4 kPa | 1029.5
4234.9 kPa | 1029.5
4260 kPa | 1029.6
4284.7 kPa | 1029.5
4314.9 kPa | 1029.7
4340 kPa | 1029.7
4366.5 kPa | 1029.7
4393.7 kPa | 1029.7
4426 kPa | 1029.7
4453.1 kPa | 1029.7
4480.4 kPa | 1029.8
4507.9 kPa | 1029.8
4542.4 kPa | 1029.9
4572 kPa | 1029.7
4602.1 kPa | 1029.7
4632.8 kPa | 1029.7
4669.8 kPa | 1029.8
4701.7 kPa | 1030
4733 kPa | 1029.9
4763.3 kPa | 1029.9
4792.9 kPa | 1029.8
4797.4 kPa | 1029.9
4798.1 kPa | 1029.9
4800.3 kPa | 1029.9
4801 kPa | 1029.8
4803.1 kPa | 1030
4805.2 kPa | 1029.9
4805.4 kPa | 1030
4807.6 kPa | 1029.9
4808.8 kPa | 1029.9
4810.7 kPa | 1029.9
4811.8 kPa | 1029.9
4812.5 kPa | 1029.9
4813.1 kPa | 1029.9
4813.3 kPa | 1030
4813.7 kPa | 1029.9
4814 kPa | 1030
4814.2 kPa | 1029.9
4814.4 kPa | 1029.9
4819 kPa | 1030
4836.2 kPa | 1029.9
4855.7 kPa | 1029.9
4877.5 kPa | 1029.9
4899 kPa | 1030
4924.1 kPa | 1030
4945.9 kPa | 1029.9
4969.3 kPa | 1030
4990.9 kPa | 1030
5013.2 kPa | 1030
5040.4 kPa | 1030
5062.7 kPa | 1030
5085.9 kPa | 1030
5113.1 kPa | 1030.1
5136.1 kPa | 1030.1
5159.8 kPa | 1030
5188.5 kPa | 1030.1
5213.2 kPa | 1030.2
5238.3 kPa | 1030.2
5263.4 kPa | 1030
5289.6 kPa | 1030.3
5314.9 kPa | 1030.1
5344.8 kPa | 1030.1
5370.4 kPa | 1030.2
5395.8 kPa | 1030.2
5426.8 kPa | 1030.1
5453.3 kPa | 1030.3
5479.6 kPa | 1030.3
5512.1 kPa | 1030.3
5539.8 kPa | 1030.4
5567.4 kPa | 1030.3
5595.3 kPa | 1030.4
